In US5324648A, “Substituted isocoumarins as serine protease inhibitors and anti-inflammatory agents” (Georgia Tech Research Corporation, priority 1992, dated 1994):
Where two headings read alike, the source gives them in different places.

Assays:
[1] = Spontaneous hydrolysis in Hepes buffer; type: physicochemical; conditions: 0.1 Hepes, 0.5M NaCl, pH 7.5, 9% Me2SO, 25° C; for half-life: hepes buffer, read-out: t1/2 for spontaneous hydrolysis
Method: ^a Conditions were 0.1 Hepes, 0.5M NaCl, pH 7.5 and 9% Me2 SO at
25° C. Spontaneous hydrolysis rates were measured
spectrophotometrically by monitoring the decrease in absorbance due to th
isocoumarin ring system (wavelength 335-380 nm) using the firstorder rate

[2] = Activated partial thromboplastin time (APTT), human plasma
[3] = biological target: T1, porcine pancreatic kallikrein (Sus scrofa, UniProt P00752); assay: Inactivation rate of porcine pancreatic kallikrein; type: biochemical; conditions: Table I, read-out: kobs/[I]
T1 construct: from tissue; host or cells: porcine pancreas (from the name)
T1 sequence (P00752 8-246): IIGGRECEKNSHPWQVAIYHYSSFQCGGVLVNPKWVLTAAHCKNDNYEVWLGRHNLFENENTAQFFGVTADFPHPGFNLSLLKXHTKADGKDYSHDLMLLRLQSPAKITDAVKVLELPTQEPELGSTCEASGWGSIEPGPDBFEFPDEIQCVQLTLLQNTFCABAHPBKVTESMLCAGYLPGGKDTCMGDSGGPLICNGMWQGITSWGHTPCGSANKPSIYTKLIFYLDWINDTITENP

bovine factor Xa = biological target: T2, bovine factor Xa (Bos taurus, UniProt P00743); assay: Inactivation rate of bovine factor Xa; type: biochemical; conditions: Table I; pH 7.5, 25° C; [I] 0.4 to 310 μM; read-out: kobs/[I]
T2 construct: bovine factor Xa
T2 sequence (P00743 234-492 limits assumed): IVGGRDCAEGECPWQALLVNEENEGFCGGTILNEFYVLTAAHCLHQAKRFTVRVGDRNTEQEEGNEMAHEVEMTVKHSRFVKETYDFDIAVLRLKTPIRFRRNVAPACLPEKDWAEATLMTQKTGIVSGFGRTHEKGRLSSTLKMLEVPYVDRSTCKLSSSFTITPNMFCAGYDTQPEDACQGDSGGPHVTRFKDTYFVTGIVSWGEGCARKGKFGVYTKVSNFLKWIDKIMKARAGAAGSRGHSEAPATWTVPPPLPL
T2 sequence (P00743 41-180 partner limits assumed): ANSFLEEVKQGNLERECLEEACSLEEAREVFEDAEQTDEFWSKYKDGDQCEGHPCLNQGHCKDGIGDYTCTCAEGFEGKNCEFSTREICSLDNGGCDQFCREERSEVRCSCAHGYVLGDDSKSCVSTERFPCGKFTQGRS

[4] = tested on: T3, human Q-31 tryptase (Homo sapiens); assay: Inactivation rate of human Q-31 tryptase; type: biochemical; conditions: Table VII; pH 7.5, 25° C; [I] 3 to 500 μM; read-out: kobs/[I]
T3 construct: human cytotoxic lymphocyte Q31 tryptase; endogenous in cells; host or cells: human cytotoxic lymphocyte Q31
T3 sequence (P12544 29-262): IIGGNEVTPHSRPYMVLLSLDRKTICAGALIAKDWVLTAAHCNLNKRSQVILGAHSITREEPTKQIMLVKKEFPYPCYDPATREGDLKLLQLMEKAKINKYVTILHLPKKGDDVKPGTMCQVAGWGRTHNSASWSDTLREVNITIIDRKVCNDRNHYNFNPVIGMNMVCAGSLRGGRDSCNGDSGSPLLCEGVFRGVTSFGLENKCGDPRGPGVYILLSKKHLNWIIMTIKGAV
Method: (§1) Inactivation rates of serine proteases by substituted isocoumarins were measured by the incubation method. An aliquot of inhibitor (25 or 50 μl) in Me2 SO was added to a buffered enzyme solution (0.01-2.3 μM) to initiate the inactivation. Aliquots (50 μl) were withdrawn at various intervals and the residual enzymatic activity was measured. Me2 SO concentration in the reaction mixture was 8-12% (v/v). 0.1 Hepes, 0.01M CaCl2, pH 7.5 buffer was utilized for trypsin and coagulation enzymes. 0.1M Hepes, 0.5M NaCl, pH 7.5 was utilized for other serine proteases. The inhibitor concentrations are shown in all the tables. Peptide thioesters or peptide nitroanilides with appropriate sequence were used as substrates for various serine proteases. All peptide thioester hydrolysis rates were measured with assay mixtures containing 4,4'-dithiodipyridine (ε324 =19800M^-1 cm^-1; Grasetti & Murray, Arch. Biochem. Biophys. 119, pp 41-49 (1967)). Peptide 4-nitroanilide nitroanilide hydrolysis was measured at 410 nm (ε410 =8800M^-1 cm^-1; Erlanger et al., Arch. Biochem. Biophys. 95, pp 271-278 (1961)). First order inactivation rate constant (kobs) were obtained from plots of ln (vt /vo) vs time, and the correlation coefficients were greater than 0.98.
^a Inactivation rates were measured at 0.1M Hepes, 0.01M CaCl2,
pH 7.5, 8% Me2 SO and 25° C. by incubation method. ZArg-SBzl
(74-85 μM) was used as the substrate to monitor the residual enzymatic

bovine trypsin = biological target: T4, bovine trypsin (Bos taurus, UniProt P00760); assay: Inactivation rate of bovine trypsin; type: biochemical; conditions: read-out: kobs/[I]
T4 sequence (P00760 24-246): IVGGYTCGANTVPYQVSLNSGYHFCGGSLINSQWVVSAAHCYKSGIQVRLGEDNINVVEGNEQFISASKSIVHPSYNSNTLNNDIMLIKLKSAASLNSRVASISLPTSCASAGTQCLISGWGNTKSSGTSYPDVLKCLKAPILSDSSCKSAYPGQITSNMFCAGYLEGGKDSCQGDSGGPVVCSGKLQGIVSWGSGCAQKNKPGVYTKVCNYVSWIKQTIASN
Outline: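 Enzyme 0.01-2.3 μM, 0.1M Hepes/0.01M CaCl2 pH 7.5, 8-12% Me2SO, 25° C; inhibitor added, timed aliquots assayed for remaining activity; kobs = slope of ln(vt/vo) vs t.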

[5] = biological target: T5, human leukocyte elastase (HLE) (Homo sapiens, UniProt P08246); assay: Inactivation of human leukocyte elastase (HLE); type: biochemical
T5 construct: from tissue; host or cells: human leukocytes (from the name)
T5 sequence (P08246 30-267): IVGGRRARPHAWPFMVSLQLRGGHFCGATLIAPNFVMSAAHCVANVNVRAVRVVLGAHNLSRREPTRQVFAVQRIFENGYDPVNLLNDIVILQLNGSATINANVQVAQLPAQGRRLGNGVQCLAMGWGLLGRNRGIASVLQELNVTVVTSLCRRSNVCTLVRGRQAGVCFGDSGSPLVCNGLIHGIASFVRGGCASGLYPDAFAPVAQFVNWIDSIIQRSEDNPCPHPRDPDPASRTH
Method: Inactivation rates of serine proteases by substituted isocoumarins were measured by the incubation method. An aliquot of inhibitor (25 or 50 μl) in Me2 SO was added to a buffered enzyme solution (0.01-2.3 μM) to initiate the inactivation. Aliquots (50 μl) were withdrawn at various intervals and the residual enzymatic activity was measured. Me2 SO concentration in the reaction mixture was 8-12% (v/v). 0.1 Hepes, 0.01M CaCl2, pH 7.5 buffer was utilized for trypsin and coagulation enzymes. 0.1M Hepes, 0.5M NaCl, pH 7.5 was utilized for other serine proteases. […] Peptide thioesters or peptide nitroanilides with appropriate sequence were used as substrates for various serine proteases. All peptide thioester hydrolysis rates were measured with assay mixtures containing 4,4'-dithiodipyridine (ε324 =19800M^-1 cm^-1 ; Grasetti & Murray, Arch. Biochem. Biophys. 119, pp 41-49 (1967)). Peptide 4-nitroanilide nitroanilide hydrolysis was measured at 410 nm (ε410 =8800M^-1 cm^-1 ; Erlanger et al., Arch. Biochem. Biophys. 95, pp 271-278 (1961)). First order inactivation rate constant (kobs) were obtained from plots of ln (vt /vo) vs time, and the correlation coefficients were greater than 0.98.
^a Inactivation rates were measured at 0.1M Hepes, 0.5 NaCl, pH 7.5,
8-12% Me2 SO and 25° C. by incubation method.
^a Inhibition rates were measured in 0.1M Hepes, 0.05M NaCl, pH 7.5
buffer, 8-9% Me2 SO and at 25° C.
^a Inhibition constants were in 0.1M Hepes, 0.5M NaCl, pH 7.5 buffer,
8-9% Me2 SO and at 25° C.
^a Inhibition rates were measured in 0.1M Hepes, 0.5M NaCl, 2.5%
Me2 SO, pH 7,5 and at 25° C.
^a Inhibition was measured in 0.1M Hepes, 0.5M NaCl, pH 7.5 buffer,
5-10% Me2 SO and at 25° C. Suc--Val--Pro--Phe--NA (0.48 mM)
was used as the substrate for chymotrypsin and cat G.
^a Inhibition rates were measured in 0.1M Hepes, 0.5M NaCl, pH 7.5

Cl^- s = biological target: T6, Cl^- s (Homo sapiens, UniProt P09871); assay: Inactivation rate of complement protein C1s; type: biochemical; conditions: Table II; pH 7.5, 25° C; [I] 0.8 to 44 μM; read-out: kobs/[I]
T6 construct: Cl^- s^e
T6 sequence (P09871 438-688 limits assumed): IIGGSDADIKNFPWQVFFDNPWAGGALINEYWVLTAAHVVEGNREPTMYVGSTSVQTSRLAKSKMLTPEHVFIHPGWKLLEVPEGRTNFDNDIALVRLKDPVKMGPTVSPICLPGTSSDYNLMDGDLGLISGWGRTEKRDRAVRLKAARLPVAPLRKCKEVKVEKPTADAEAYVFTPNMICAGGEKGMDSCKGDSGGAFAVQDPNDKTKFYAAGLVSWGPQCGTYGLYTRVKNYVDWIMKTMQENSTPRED
T6 sequence (P09871 16-437 partner limits assumed): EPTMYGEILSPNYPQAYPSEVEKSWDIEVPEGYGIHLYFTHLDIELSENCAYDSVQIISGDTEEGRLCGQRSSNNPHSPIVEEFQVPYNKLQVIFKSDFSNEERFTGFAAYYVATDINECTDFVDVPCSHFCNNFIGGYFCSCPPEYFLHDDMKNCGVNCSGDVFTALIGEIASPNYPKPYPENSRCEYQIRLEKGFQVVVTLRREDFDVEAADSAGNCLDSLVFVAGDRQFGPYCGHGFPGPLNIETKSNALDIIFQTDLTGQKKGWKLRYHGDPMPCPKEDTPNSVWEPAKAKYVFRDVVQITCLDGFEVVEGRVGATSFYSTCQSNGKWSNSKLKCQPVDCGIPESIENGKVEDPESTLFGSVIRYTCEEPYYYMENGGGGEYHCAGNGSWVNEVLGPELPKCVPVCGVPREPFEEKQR
Method: as §1
^a Conditions were 0.1M Hepes, 0.5M NaCl, pH 7.5, 8-10% Me2 SO
and 25° C. Inactivation rates were measured by incubation method.
Enzyme concentrations were as follows: protein D, 1-9 μM; C2, 0.7-1
μM; B, 1.8 μM; Bb, 0.3-0.8 μM; Cl^- s, 0.07 μM; Cl^-

[6] = pH 7.5, Table I, progress curve method
[7] = Table IV, pH 7.5, 25° C, [I] 0.001 to 0.18 mM, read-out: kobs/[I]
[8] = pH 7.5, 25° C, [I] 0.4 to 300 μM
[9] = Table I, pH 7.5, 25° C, [I] 1 to 12 μM
[10] = pH 7.5, same concentration of enzyme and inhibitor
[11] = pH 7.5, Table I, same concentration of enzyme and inhibitor

| Compound | half-life [1] [h] | kinact/KI (bovine factor Xa) [M⁻¹ s⁻¹] | kinact/KI [4] [M⁻¹ s⁻¹] | kinact/KI [5, 7] [M⁻¹ s⁻¹] | kinact/KI (Cl^- s) [M⁻¹ s⁻¹] | kinact/KI [3, 8] [M⁻¹ s⁻¹] | kinact/KI (bovine trypsin; [9]) [M⁻¹ s⁻¹] | kinact/KI [3, 10] [M⁻¹ s⁻¹] | also measured |
| --- | --- | --- | --- | --- | --- | --- | --- | --- | --- |
| COc1oc(=O)c2cc(NC(=N)N)ccc2c1Cl [7-guanidino-4-chloro-3-methoxyisocoumarin] | 0.733 | 3100 | 6620 | 6400 | 660 | – | – | – | APTT ([2]; [I] 21 μM): 83.8 s; kinact/KI ([3]; pH 7.5, progress curve method): 45000 M⁻¹ s⁻¹; kinact/KI (bovine trypsin; [6]): 310000 M⁻¹ s⁻¹ |
| NCCCOc1oc(=O)c2ccccc2c1Cl [3-(3-aminopropoxy)-4-chloroisocoumarin] | 2.05 | 160 | – | 860 | – | 860 | 7600 | – | – |
| N=C(N)SCCCOc1oc(=O)c2ccccc2c1Cl [3-(3-isothiureidopropoxy)-4-chloroisocoumarin] | 1.65 | 220 | 12800 | 2000 | 130000 | 19000 | 46000 | – | APTT ([2]; [I] 31 μM): 25.8 s |
| N=C(N)SCCCOc1oc(=O)c2cc(N)ccc2c1Cl [7-amino-4-chloro-3-(3-isothiureidopropoxy)isocoumarin] | – | 1640 | 1960 | 130 | 23000 | – | – | > 110000 | t1/2 for spontaneous hydrolysis [1]: 1.5 h; APTT ([2]; [I] 2.9 μM): 100.8 s; APTT ([2]; [I] 29 μM): > 120 s; kinact/KI (bovine trypsin; [6]): 410000 M⁻¹ s⁻¹ |
| N=C(N)Nc1ccc2c(Cl)c(OCCc3ccccc3)oc(=O)c2c1 [7-guanidino-4-chloro-3-(2-phenylethoxy)isocoumarin] | 0.6 | 96000 | 1880 | 73 | 90 | – | – | 200000 | APTT ([2]; [I] 27 μM): 57.3 s; kinact/KI (bovine trypsin; [11]): > 110000 M⁻¹ s⁻¹ |
| N=C(N)SCCOc1oc(=O)c2ccccc2c1Cl [3-(2-isothiureidoethoxy)-4-chloroisocoumarin] | 1.38 | 5600 | – | 220 | – | 12000 | 32000 | – | – |
| COc1cc2ccc(NC(=N)N)cc2c(=O)o1 [7-guanidino-3-methoxyisocoumarin] | 4.2 | 460 | – | 320 | – | 1900 | 3300 | – | – |
| CCOc1oc(=O)c2cc(NC(=N)N)ccc2c1Cl [7-guanidino-3-ethoxy-4-chloroisocoumarin, 7-guanidino-4-chloro-3-ethoxyisocoumarin] | 0.65 | 26700 | 6180 | 81000 | 690 | – | – | > 200000 | APTT ([2]; [I] 4.3 μM): 74.8 s; APTT ([2]; [I] 21 μM): > 120 s; APTT ([2]; [I] 53 μM): > 120 s; APTT ([2]; [I] 107 μM): > 120 s; kinact/KI (bovine trypsin; [11]): > 110000 M⁻¹ s⁻¹ |
| O=c1oc(Cl)c(Cl)c2ccccc12 [3,4-dichloroisocoumarin, reference compound] | – | – | 29 | – | 170 | – | – | – | APTT ([2]; [I] 33 μM): 26.6 s; APTT ([2]; [I] 45 μM): 26.0 s |
| N=C(N)SCCOc1oc(=O)c2cc(NC(=O)Nc3ccccc3)ccc2c1Cl [PhNHCONH-CiTEtOIC, 7-(phenylcarbamoylamino)-4-chloro-3-(2-isothiureidoethoxy)isocoumarin] | – | – | – | – | – | – | – | – | t1/2 for spontaneous hydrolysis [1]: 1.8 h; kinact/KI (bovine trypsin; Table VIII, pH 7.5, 25° C, [I] 1.1-4.6 μM): 21000 M⁻¹ s⁻¹; kinact/KI ([5]; pH 7.5, Table X, biphasic inhibition, read-out: kobs/[I] (biphasic, first value)): 46000 M⁻¹ s⁻¹; kinact/KI ([5]; pH 7.5, Table X, biphasic inhibition, read-out: kobs/[I] (biphasic, second value)): 5730 M⁻¹ s⁻¹ |
